What is called IC50 is the concentration that inhibits the measured activity by half. The term pIC50 denotes the IC50 on a negative log10 scale, so that one unit is a factor of ten. In general, EC50 refers to the concentration at which the effect is half-maximal. Usually inhibition stands for the drop in the measured response relative to a control, in per cent.

The nature of assay [1]: Inhibition of recombinant Plasmodium falciparum PKG using FAM-PKA peptide as fluorescent substrate preincubated for 15 mins followed by substrate addition measured after 1 hr by fluorescence polarization based IMAP assay. A general note: Fluorescence polarisation rises when a labelled molecule tumbles more slowly, as on binding a larger partner.
Assay [2] deals with Plasmodium falciparum. In words: Antimalarial activity against drug-sensitive Plasmodium falciparum 3D7 infected in human erythrocytes assessed as reduction in parasitemia incubated for 72 hrs by SYBR green I and Mitotracker deep red dye based flow cytometric analysis. The class given is functional, organism-based.
In assay [3] the test system is Plasmodium falciparum. The experiment in a line: Antimalarial activity against Plasmodium falciparum expressing PKG T618Q mutant infected in human erythrocytes assessed as reduction in parasitemia incubated for 72 hrs by SYBR green I and Mitotracker deep red dye based flow cytometric analysis. The class given is functional, organism-based. Particulars: Plasmodium falciparum, 72 h.

Assay [4] concerns Plasmodium berghei. The experiment in a line: Antimalarial activity against Plasmodium berghei sporozoites expressing Luciferase infected in human HepG2 cells assessed as reduction in parasite growth incubated for 48 hrs by ONE-Glo luciferase assay. The class given is functional, organism-based. Particulars: Plasmodium berghei, HepG2, 48 h.
Assay [5] is filed under the species Homo sapiens. The experiment in a line: Inhibition of human PKG using FAM-IP3R peptide as fluorescent substrate at 10 uM preincubated for 15 mins followed by substrate addition measured after 1 hr by fluorescence polarization based IMAP assay relative to control. The following applies: time 75.0 min.
Setting [6] is: Plasmodium falciparum, 3D7, 72 h.

As to `CN1CCC(c2[nH]c(-c3ccc(F)cc3)c(-c3ccncc3)c2C#N)CC1.Cl.Cl`, the IC50 in assay [1] was found to be 11 nM. For the same molecule, the negative-log IC50 (pIC50) in assay [1] came to 7.96. The EC50 came to 900 nM in assay [2] (setting [6]), 2450 nM in assay [3] and 540 nM in assay [4]. Moreover, the inhibition in assay [5] was 19%.
On to `CN1CCC(c2cc(-c3ccnc(C(N)=O)c3)c(-c3ccc(F)cc3)[nH]2)CC1.Cl.Cl`, for which, in assay [1], the IC50 was 1810 nM and the pIC50 was 5.74. The 50% effective concentration (EC50) in assay [2] (setting [6]) came out at 3920 nM. Moreover, in assay [3], the 50% effective concentration (EC50) is > 10000 nM. The inhibition in assay [5] turned out to be 14%.
As for `CN(C)Cc1c(C2CCN(C)CC2)[nH]c(-c2ccc(F)cc2)c1-c1ccncc1.Cl.Cl.Cl`, in assay [1], the half-maximal inhibitory concentration (IC50) worked out at 3760 nM and the pIC50 came out at 5.43. The inhibition in assay [5] worked out at 8%.
Consider `CC(=O)O.CN1CCC(c2cc(-c3ccnc(C#N)c3)c(-c3ccc(F)cc3)[nH]2)CC1`, for which the IC50 in assay [1] is 95 nM. In assay [1], the pIC50 worked out at 7.02. In addition, the figures for the EC50 in assay [2] (setting [6]), in assay [3] and in assay [4] were 420 nM, 3730 nM and 2800 nM, respectively. In assay [5], the inhibition turned out to be 9%.
Regarding `CN1CCC(c2cc(-c3ccn4nnnc4c3)c(-c3ccc(F)cc3)[nH]2)CC1.Cl.Cl`, the concentration for half-maximal inhibition (IC50) in assay [1] was 11600 nM. For the same molecule, in assay [1], the negative logarithm of the IC50 (pIC50) was 4.94. The values for the EC50 in assay [2] (setting [6]), in assay [3] and in assay [4] were 2750 nM, 2270 nM and > 20000 nM, respectively. Besides, the inhibition in assay [5] is 12%.
Consider `COc1ccc(-c2[nH]c(C3CCN(C)CC3)cc2-c2ccncc2)cc1.Cl.Cl`, for which, in assay [1], the IC50 turned out to be 30 nM. For the same molecule, the negative-log IC50 (pIC50) in assay [1] is listed as 7.2. Also, the EC50 was 230 nM in assay [2] (setting [6]), 1090 nM in assay [3] and 240 nM in assay [4]. The inhibition in assay [5] came out at 6%.
Turning to `CN1CCC(c2cc(-c3ccncc3C#N)c(-c3ccc(F)cc3)[nH]2)CC1.Cl.Cl`, in assay [1], the IC50 was determined as 35 nM. The negative logarithm of the IC50 (pIC50) in assay [1] is listed as 7.46. Besides, the EC50 is 360 nM in assay [2] (setting [6]), 4400 nM in assay [3] and 340 nM in assay [4]. Also, the inhibition in assay [5] is 2%.
`Cc1cc(-c2cc(C3CCN(C)CC3)[nH]c2-c2ccc(F)cc2)ccn1.Cl.Cl`: the IC50 in assay [1] was 2550 nM. The negative logarithm of the IC50 (pIC50) in assay [1] turned out to be 5.59. In addition, the EC50 in assay [2] (setting [6]) stood at 2330 nM; in assay [3] it was 960 nM; in assay [4], 3700 nM. Further, the inhibition in assay [5] is 9%.
Consider `CN1CCC(c2[nH]c(-c3ccc(F)cc3)c(-c3ccncc3)c2C(N)=O)CC1.Cl.Cl`, for which, in assay [1], the IC50 was 4840 nM and the negative logarithm of the IC50 (pIC50) is 5.31. For the same molecule, the half-maximal effective concentration (EC50) in assay [2] (setting [6]) is > 20000 nM. Besides, the inhibition in assay [5] is 14%.
Consider `CN1C[C@@H]2C(c3cc(-c4ccncc4)c(-c4ccc(F)cc4)[nH]3)[C@@H]2C1.Cl.Cl` (some centres undefined), for which the IC50 in assay [1] came to 207 nM. Besides, the pIC50 in assay [1] came to 6.59. Besides, the EC50 was 640 nM in assay [2] (setting [6]), 900 nM in assay [3] and 670 nM in assay [4]. The inhibition in assay [5] stood at 6%.
Take `CN1CCC(c2[nH]c(-c3ccc(F)cc3)c(-c3ccncc3)c2Br)CC1.Cl.Cl`: the 50% inhibitory concentration (IC50) in assay [1] was found to be 107 nM. The pIC50 in assay [1] was 6.97. Besides, the EC50 worked out at 1550 nM in assay [2] (setting [6]) and 1140 nM in assay [3]. For the same molecule, the inhibition in assay [5] amounted to 12%.
As for `C[C@H]1CN(C)CC[C@H]1c1cc(-c2ccncc2)c(-c2ccc(F)cc2)[nH]1.Cl.Cl` (racemic), the 50% inhibitory concentration (IC50) in assay [1] worked out at 10 nM. Further, in assay [1], the pIC50 was found to be 7.89. Further, the figures for the EC50 in assay [2], in assay [3] and in assay [4] were 30 nM, 660 nM and 190 nM, respectively. In addition, the inhibition in assay [5] was 35%.
Turning to `CCOC(=O)c1c(C2CCN(C)CC2)[nH]c(-c2ccc(F)cc2)c1-c1ccncc1.Cl.Cl`, the IC50 in assay [1] turned out to be 1030 nM. Further, the negative-log IC50 (pIC50) in assay [1] is recorded as 5.99. Also, the EC50 in assay [2] (setting [6]) turned out to be 2470 nM; in assay [3], 1630 nM; in assay [4] it was 2600 nM. Also, in assay [5], the inhibition worked out at 0%.
As for `CCc1c(C2CCN(C)CC2)[nH]c(-c2ccc(F)cc2)c1-c1ccncc1.Cl.Cl`, in assay [1], the IC50 is 1610 nM and the pIC50 was 5.79. Further, the inhibition in assay [5] stood at 12%.
Take `CN1CCC(c2cc(-c3ccncc3)c(-c3ccsc3)[nH]2)CC1.Cl.Cl`: in assay [1], the half-maximal inhibitory concentration (IC50) was determined as 176 nM. The pIC50 in assay [1] worked out at 6.89. For the same molecule, the figures for the EC50 in assay [2] (setting [6]), in assay [3] and in assay [4] were 1020 nM, 1740 nM and 2400 nM, respectively. Also, in assay [5], the inhibition amounted to 7%.
As for `CN1CCC(c2cc(-c3ccnc(Br)c3)c(-c3ccc(F)cc3)[nH]2)CC1.Cl.Cl`, in assay [1], the IC50 is 169 nM and the pIC50 is listed as 6.77. In assay [2] (setting [6]), the 50% effective concentration (EC50) came to 1720 nM. The EC50 in assay [3] worked out at 1930 nM. Also, the inhibition in assay [5] worked out at 36%.
With `CC(=O)O.CC(O)c1c(C2CCN(C)CC2)[nH]c(-c2ccc(F)cc2)c1-c1ccncc1` (centres undefined), in assay [1], the IC50 worked out at 1430 nM and the pIC50 amounted to 5.84. In addition, in assay [2] (setting [6]), the EC50 came to 4260 nM. For the same molecule, the half-maximal effective concentration (EC50) in assay [3] amounted to 3750 nM. In addition, the inhibition in assay [5] turned out to be 15%.
Take `CN1C2CCC1CC(c1cc(-c3ccncc3)c(-c3ccc(F)cc3)[nH]1)C2.Cl.Cl` (centres undefined): the 50% inhibitory concentration (IC50) in assay [1] was found to be 132 nM. Besides, the negative-log IC50 (pIC50) in assay [1] stood at 7.09. The values for the EC50 in assay [2] (setting [6]), in assay [3] and in assay [4] were 350 nM, 670 nM and 490 nM, respectively. Also, the inhibition in assay [5] is -9%.
On to `C[C@H]1C[C@H](c2cc(-c3ccncc3)c(-c3ccc(F)cc3)[nH]2)CCN1C.Cl.Cl` (racemic), for which the half-inhibitory concentration (IC50) in assay [1] was found to be 51 nM. In addition, the negative logarithm of the IC50 (pIC50) in assay [1] came to 7.1. For the same molecule, the EC50 came to 380 nM in assay [2] (setting [6]), 950 nM in assay [3] and 560 nM in assay [4]. For the same molecule, the inhibition in assay [5] worked out at 7%.
For the molecule `CN1CCC(c2cc(-c3ccnc(N)c3)c(-c3ccc(F)cc3)[nH]2)CC1.Cl.Cl`, the 50% inhibitory concentration (IC50) in assay [1] was 352 nM. Besides, the pIC50 in assay [1] came to 6.45. The half-maximal effective concentration (EC50) was 50 nM in assay [2] (setting [6]), 600 nM in assay [3] and 590 nM in assay [4]. Moreover, the inhibition in assay [5] was -4%.
In the case of `CN1CCC(c2cc(-c3ccncc3Br)c(-c3ccc(F)cc3)[nH]2)CC1.Cl.Cl`, the 50% inhibitory concentration (IC50) in assay [1] is 35 nM. In assay [1], the pIC50 turned out to be 7.46. Further, the concentration for a half-maximal effect (EC50) came out at 330 nM in assay [2] (setting [6]), 1670 nM in assay [3] and 340 nM in assay [4]. Also, the inhibition in assay [5] was 13%.
Consider `C=Cc1c(C2CCN(C)CC2)[nH]c(-c2ccc(F)cc2)c1-c1ccncc1.CC(=O)O`, for which the half-maximal inhibitory concentration (IC50) in assay [1] stood at 246 nM. The pIC50 in assay [1] was determined as 6.61. Further, the EC50 in assay [2] (setting [6]) was determined as 1080 nM; in assay [3], 1170 nM; in assay [4], 410 nM. In addition, in assay [5], the inhibition was -1%.
As to `CC(=O)O.CN1CCC(c2[nH]c(-c3ccc(F)cc3)c(-c3ccncc3)c2CO)CC1`, in assay [1], the IC50 came out at 226 nM and the pIC50 is reported as 6.65. Moreover, the EC50 in assay [2] (setting [6]) turned out to be 4610 nM. The EC50 in assay [3] is 4190 nM. The inhibition in assay [5] was 11%.
`CN1CCC(c2cc(-c3ccncc3C(N)=O)c(-c3ccc(F)cc3)[nH]2)CC1.Cl.Cl`: in assay [1], the IC50 stood at 4910 nM and the pIC50 was 5.31. The half-maximal effective concentration (EC50) in assay [2] (setting [6]) is > 20000 nM. Besides, the inhibition in assay [5] was 15%.
